Laboratory results taken from patent US8633315B2, “Substituted hydroxyethyl amine compounds as beta-secretase modulators and methods of use” (Amgen Inc., priority 2007, dated 2014).

Assays:
BACE1 = BACE1 (Homo sapiens, UniProt P56817); test: In vitro enzymatic BACE FRET (fluorescence resonance energy transfer) assay; format: biochemical; details: read-out: BACE 1 FRET assay
Procedure, shortened: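 Cleavage of a quenched peptide FRET substrate (50 nM) in 0.05 M acetate pH 4.2, 10% DMSO, 100 uM genapol, 1 h incubation. Reaction stopped by Tris neutralization; fluorescence read at excitation 488 nm / […].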

[1] = system: Cells stably expressing Amyloid Precursor Protein (APP); test: In vitro BACE cell-based assay (HEK cell assay): Aβ40 in conditioned medium by sandwich ELISA; details: Homo sapiens, HEK293
Procedure, shortened: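 APP-stably-expressing cells were grown 24 h in DMEM/10% FBS, then treated for 24 h with 10-point doses starting at 100 μM or 10 μM, at 0.1% DMSO final. Aβ40 in conditioned medium was measured by sandwich ELISA (pAb40 capture, biotinylated 6E10 detection, europium time-resolved fluorescence); IC50 from percent inhibition.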

CYP3A4 (CYP3A) = CYP3A4 (CYP3A) (Homo sapiens, UniProt P08684); test: CYP3A inhibition assay (midazolam, pooled human liver microsomes); format: in vitro ADME; details: human, pooled human liver microsomes, pH 7.4, probe midazolam (printed as about […]); read-out: 3A4 IC50
[2] = Microsomal stability assay, human liver microsomes; format: in vitro ADME
Description: (§1) Microsomal Stability Assay

[3] = Microsomal stability assay, rat liver microsomes; format: in vitro ADME
Description: as §1

BACE1, sequence (P56817 46-501, species assumed): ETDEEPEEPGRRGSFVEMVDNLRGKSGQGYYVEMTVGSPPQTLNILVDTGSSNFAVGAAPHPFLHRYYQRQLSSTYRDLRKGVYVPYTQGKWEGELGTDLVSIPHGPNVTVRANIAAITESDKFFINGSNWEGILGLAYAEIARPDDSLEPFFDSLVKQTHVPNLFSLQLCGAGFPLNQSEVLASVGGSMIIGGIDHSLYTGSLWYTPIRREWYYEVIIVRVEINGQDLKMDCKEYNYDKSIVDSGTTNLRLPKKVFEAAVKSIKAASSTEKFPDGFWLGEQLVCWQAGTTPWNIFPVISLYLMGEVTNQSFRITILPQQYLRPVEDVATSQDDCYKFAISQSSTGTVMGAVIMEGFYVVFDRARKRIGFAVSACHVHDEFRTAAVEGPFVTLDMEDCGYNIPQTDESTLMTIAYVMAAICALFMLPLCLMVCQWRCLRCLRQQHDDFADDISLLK
CYP3A4 (CYP3A), sequence (P08684 2-503): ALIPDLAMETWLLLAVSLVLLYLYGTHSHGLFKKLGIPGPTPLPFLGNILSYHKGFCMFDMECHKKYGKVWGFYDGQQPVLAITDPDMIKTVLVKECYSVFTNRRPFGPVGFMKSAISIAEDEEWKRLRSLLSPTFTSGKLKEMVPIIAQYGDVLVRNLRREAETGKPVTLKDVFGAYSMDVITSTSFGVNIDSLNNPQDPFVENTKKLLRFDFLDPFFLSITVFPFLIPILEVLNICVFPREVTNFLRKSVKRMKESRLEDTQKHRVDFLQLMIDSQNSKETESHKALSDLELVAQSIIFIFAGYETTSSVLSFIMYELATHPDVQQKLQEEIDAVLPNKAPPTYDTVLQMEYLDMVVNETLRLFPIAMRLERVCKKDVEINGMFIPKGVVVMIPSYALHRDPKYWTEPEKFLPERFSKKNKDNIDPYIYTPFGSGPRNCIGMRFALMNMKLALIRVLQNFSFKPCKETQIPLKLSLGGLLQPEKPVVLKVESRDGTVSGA

| IC50 (BACE1) [nM] | IC50 [1] [nM] | IC50 at 10 min (CYP3A4 (CYP3A)) [nM] | HLM [2] [µL/min/mg] | RLM [3] [µL/min/mg] | SMILES |
| --- | --- | --- | --- | --- | --- |
| 127 | 21 | 700 | 551 | 174 | C=CC[C@H](NC(=O)COC)[C@H](O)CN[C@H]1CC2(CCC2)Oc2c1cc(CC(C)(C)C)nc2Nc1ccncc1 [compound 232] |
| 371 | 10000 | 3500 | 515 | 249 | CCC[C@H](NC(=O)[C@@H](C)OC)[C@H](O)CN[C@H]1CC2(CCC2)Oc2c1cc(CC(C)(C)C)nc2Cl [compound 223, (2R)-N-((1S)-1-((1R)-2-(((4′S)-8′-chloro-6′-(2,2-dimethylpropyl)-3′,4′-dihydrospiro[cyclobutane-1,2′-pyrano[2,3-c]pyridin]-4′-yl)amino)-1-hydroxyethyl)butyl)-2-(methyloxy)propanamide] |
| 60 | 339 | 27000 | 36 | 25 | CC[C@H](NC(C)=O)[C@H](O)CN[C@H]1CC2(CCC2)Oc2ncc(CC(C)(C)C)cc21 [compound 213] |
| 20 | 920 | 200 | 551 | 477 | C=CC[C@H](NC(=O)COC)[C@H](O)CN[C@H]1CC2(CCC2)Oc2c(-c3cncs3)cc(CC(C)(C)C)cc21 [compound 217] |
| 92 | 1110 | 200 | 829 | 644 | C=CC[C@H](NC(=O)[C@@H](C)OC)[C@H](O)CN[C@H]1CC2(CCC2)Oc2c(-c3nccs3)cc(CC(C)C)cc21 [compound 210] |
| 54 | 366 | 1200 | 614 | 119 | C=CC[C@H](NC(=O)COC)[C@H](O)CN[C@H]1CC2(CCC2)Oc2c1cc(CC(C)(C)C)nc2Nc1nccs1 [compound 236] |
| 9250 | 10000 | 300 | 829 | 459 | C=CC[C@H](NC(=O)CCC(C)(C)C)[C@H](O)CN[C@H]1CC2(CCC2)Oc2ncc(CC(C)(C)C)cc21 [compound 245] |
| 15 | 57 | 1300 | 104 | 137 | C=CC[C@H](NC(=O)[C@H]1CCC(=O)O1)[C@H](O)CN[C@H]1CC2(CCC2)Oc2ncc(CC(C)(C)C)cc21 [compound 211] |
| 92 | 262 | 700 | 775 | 399 | C=CC[C@H](NC(=O)COC)[C@H](O)CN[C@H]1CC2(CCC2)Oc2c(-c3nccs3)cc(CC(C)C)cc21 [compound 212, N-((1S)-1-((1R)-1-hydroxy-2-(((4S)-6-(2-methylpropyl)-8-(1,3-thiazol-2-yl)-3,4-dihydrospiro[chromene-2,1′-cyclobutan]-4-yl)amino)ethyl)-3-buten-1-yl)-2-methoxyacetamide] |
| 31 | 121 | 2700 | 244 | 100 | C=CC[C@H](NC(C)=O)[C@H](O)CN[C@H]1CC2(CCC2)Oc2c1cc(CC(C)(C)C)nc2Nc1nccs1 [compound 235] |
| 2160 | 982 | 300 | 601 | 173 | C=CC[C@H](NC(=O)C1COC(c2cccnc2)O1)[C@H](O)CN[C@H]1CC2(CCC2)Oc2ncc(CC(C)(C)C)cc21 (stereo partly drawn) [compound 243, N-((1S)-1-((1R)-2-(((4′S)-6′-(2,2-dimethylpropyl)-3′,4′-dihydrospiro[cyclobutane-1,2′-pyrano[2,3-b]pyridin]-4′-yl)amino)-1-hydroxyethyl)-3-buten-1-yl)-2-(3-pyridinyl)-1,3-dioxolane-4-carboxamide] |
| 44 | 2170 | 900 | 492 | 247 | C=CC[C@H](NC(=O)COC)[C@H](O)CN[C@H]1CC2(CCC2)Oc2c(Br)cc(CC(C)(C)C)cc21 [compound 214] |
| 57 | 838 | 1000 | 736 | 551 | C=CC[C@H](NC(=O)COC)[C@H](O)CN[C@H]1CC2(CCC2)Oc2c(-c3nccs3)cc(CC(C)(C)C)cc21 [compound 215] |
| 480 | 462 | 27000 | 40 | 14 | COC[C@H](NC(C)=O)[C@H](O)CN[C@H]1CC2(CCC2)Oc2ncc(CC(C)(C)C)cc21 [compound 225] |
| 107 | 125 | 300 | 569 | 369 | C=CC[C@H](NC(=O)COC)[C@H](O)CN[C@H]1CC2(CCC2)Oc2c(-c3cccnc3)cc(CC(C)(C)C)cc21 [compound 220] |
| 338 | 328 | 100 | 31 | 183 | C=CC[C@H](NC(=O)COC)[C@H](O)CN[C@H]1CC2(CCC2)Oc2c1cc(CC(C)C)cc2-n1ccnc1 [compound 209] |
| 2410 | 5630 | 4100 | 299 | 173 | C=CC[C@H](NC(=O)COC)[C@H](O)CN[C@H]1CC2(CCC2)Oc2ncc(C(F)(F)C(C)(C)C)cc21 [compound 234] |
| 1230 | 385 | 160 | 58 | 64 | C=CC[C@H](NC(=O)COC)[C@H](O)CN[C@H]1CC2(CCC2)Oc2c1cc(CC(C)(C)C)nc2-c1nccn1C [compound 237, N-((1S)-1-((1R)-2-(((4′S)-6′-(2,2-dimethylpropyl)-8′-(1-methyl-1H-imidazol-2-yl)-3′,4′-dihydrospiro[cyclobutane-1,2′-pyrano[2,3-c]pyridin]-4′-yl)amino)-1-hydroxyethyl)-3-buten-1-yl)-2-methoxyacetamide] |
| 617 | 83 | 5000 | 161 | 259 | CCC[C@H](NC(=O)COC)[C@H](O)CN[C@H]1CC2(CCC2)Oc2c1cc(CC(C)(C)C)nc2NC [compound 226] |
| 78 | 58 | 1900 | 61 | 106 | C#CC[C@H](NC(C)=O)[C@H](O)CNC1CC2(CCC2)Oc2c1cc(CC(C)(C)C)nc2NC (stereo partly drawn) [Example 221] |
| 170 | 249 | 100 | 106 | 360 | C=CC[C@H](NC(=O)COC)[C@H](O)CN[C@H]1CC2(CCC2)Oc2c(-c3ccncc3)cc(CC(C)(C)C)cc21 [compound 219] |
